Results: ChEMBL document CHEMBL4145475, “Integration of multi-scale molecular modeling approaches with experiments for the in silico guided design and discovery of novel hERG-Neutral antihypertensive oxazalone and imidazolone derivatives and analysis of their potential restrictive effects on cell proliferation” (Eur J Med Chem, 2018)
pKi: −log10 of the molar value. Values belong to the molecule of their own block, whether it stands above or below them. Activity calls are given as the source filed them. No cut-off for these calls is given here.

Columns and labels:
A549 [1] = experiment: Antimigratory activity against human A549 cells at 10 uM after 72 hrs by wound-healing assay; type: functional, cell-based
NCI-H358 [2] = experiment: Cytotoxicity against human NCI-H358 cells up to 30 uM after 48 hrs by WST-1 assay; type: cell-based; conditions: nci-h358, 48 h
NCI-H358 [3] = experiment: Antimigratory activity against human NCI-H358 cells at 10 uM after 48 hrs by wound-healing assay; type: functional, cell-based
NIH3T3 [4] = experiment: Cytotoxicity against mouse NIH/3T3 cells up to 30 uM after 48 hrs by WST-1 assay; type: cell-based; conditions: nih3t3, 48 h
NIH3T3 [5] = experiment: Antimigratory activity against mouse NIH/3T3 cells at 10 uM after 72 hrs by wound-healing assay; type: ADME, cell-based; conditions: nih3t3, 72 h
A549 [6] = experiment: Cytotoxicity against human A549 cells up to 30 uM after 48 hrs by WST-1 assay; type: cell-based; conditions: a549, 48 h
[7] = target: T1, Type-1 angiotensin II receptor (Homo sapiens, UniProt P30556); experiment: (§1) Displacement of [125I-Sar1-Ile8]-Ang2 from human angiotensin 2 receptor type 1 receptor expressed in HEK293 cells after 1 hr by gamma counting analysis; type: cell-based
T1 sequence (P30556 whole entry): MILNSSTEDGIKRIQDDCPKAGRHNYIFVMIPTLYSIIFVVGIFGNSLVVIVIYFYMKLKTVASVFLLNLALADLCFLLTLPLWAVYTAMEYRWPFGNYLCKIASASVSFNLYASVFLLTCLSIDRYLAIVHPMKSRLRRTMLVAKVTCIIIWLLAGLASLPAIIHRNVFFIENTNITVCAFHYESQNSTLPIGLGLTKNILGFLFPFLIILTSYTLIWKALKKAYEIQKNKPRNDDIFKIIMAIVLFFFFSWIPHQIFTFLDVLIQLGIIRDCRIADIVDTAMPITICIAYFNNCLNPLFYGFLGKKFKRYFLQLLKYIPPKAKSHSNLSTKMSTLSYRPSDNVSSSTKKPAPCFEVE

NIH3T3 [8] = experiment: Cytotoxicity against mouse NIH/3T3 cells at 1 to 10 uM after 72 hrs measured during wound-healing assay; type: cell-based; conditions: nih3t3, 72 h
NCI-H358 [9] = experiment: Cytotoxicity against human NCI-H358 cells at 1 to 10 uM after 48 hrs measured during wound-healing assay; type: cell-based; conditions: nci-h358, 48 h
A549 [10] = experiment: Cytotoxicity against human A549 cells at 1 to 10 uM after 72 hrs measured during wound-healing assay; type: cell-based; conditions: a549, 72 h
MCF7 [11] = experiment: Cell cycle arrest in human MCF7 cells assessed as cell death at 50 to 100 uM after 24 hrs by propidium iodide staining-based flow cytometric analysis; type: functional
HUVEC [12] = experiment: Cell cycle arrest in human HUVEC cells assessed as cell detachment at 50 to 100 uM after 24 hrs by propidium iodide staining-based flow cytometric analysis; type: ADME
MCF7 [13] = experiment: Cell cycle arrest in human MCF7 cells assessed as cell detachment at 50 to 100 uM after 24 hrs by propidium iodide staining-based flow cytometric analysis; type: functional
MCF7 [14] = experiment: Cell cycle arrest in human MCF7 cells assessed as accumulation of cells at subG1 phase at 50 to 100 uM after 24 hrs by propidium iodide staining-based flow cytometric analysis; type: functional
HUVEC [15] = experiment: Cell cycle arrest in human HUVEC cells assessed as increase in cells at G2/M phase after 24 hrs by propidium iodide staining-based flow cytometric analysis; type: ADME
HUVEC [16] = experiment: Cell cycle arrest in human HUVEC cells assessed as accumulation of cells at subG1 phase at 50 to 100 uM after 24 hrs by propidium iodide staining-based flow cytometric analysis; type: ADME
HUVEC [17] = experiment: Cell cycle arrest in human HUVEC cells assessed as accumulation of cells with 8N DNA content at 100 uM after 1 to 2 days by propidium iodide staining-based flow cytometric analysis relative to control; type: ADME
MCF7 [18] = experiment: Cell cycle arrest in human MCF7 cells assessed as decrease in cells at G0/G1 phase after 48 hrs by propidium iodide staining-based flow cytometric analysis; type: functional
HUVEC [19] = experiment: Cell cycle arrest in human HUVEC cells assessed as cell death at 50 to 100 uM after 24 hrs by propidium iodide staining-based flow cytometric analysis; type: ADME
HUVEC [20] = experiment: Cell cycle arrest in human HUVEC cells assessed as decrease in cells at G0/G1 phase after 24 hrs by propidium iodide staining-based flow cytometric analysis; type: ADME
MCF7 [21] = experiment: Cell cycle arrest in human MCF7 cells assessed as accumulation of cells with 8N DNA content at 100 uM after 1 to 2 days by propidium iodide staining-based flow cytometric analysis relative to control; type: functional
MCF7 [22] = experiment: Cell cycle arrest in human MCF7 cells assessed as increase in cells at G2/M phase after 48 hrs by propidium iodide staining-based flow cytometric analysis; type: functional
[23] = target: T2, Type-1 angiotensin II receptor (Homo sapiens) (UniProt P30556); experiment: as §1; type: cell-based
T2 sequence (whole entry): T1 sequence (P30556 whole entry)

Compound: CCCCC(=O)N(Cc1ccc(-c2ccccc2-c2nnn[nH]2)cc1)[C@H](C(=O)O)C(C)C
- Activity (A549 [1]): Active
- Activity (NCI-H358 [2]): Non-Toxic
- Activity (NCI-H358 [3]): Active
- Activity (NIH3T3 [4]): Non-Toxic
- Activity (NIH3T3 [5]): Toxic
- Activity (A549 [6]): Non-Toxic

- pKi [7]: 7.98
Compound: CCOc1nc2cccc(C(=O)O)c2n1Cc1ccc(-c2ccccc2-c2nnn[nH]2)cc1

Compound: CCCCC1=N/C(=C\c2cccc(Cl)c2)C(=O)N1Cc1ccc(-c2ccccc2-c2nnn(C(c3ccccc3)(c3ccccc3)c3ccccc3)n2)cc1
- Activity (A549 [1]): Active
- Activity (NCI-H358 [2]): Non-Toxic
- Activity (NIH3T3 [8]): Non-Toxic
- Activity (NIH3T3 [4]): Non-Toxic
- Activity (NCI-H358 [9]): Non-Toxic
- Activity (A549 [6]): Non-Toxic
- Activity (A549 [10]): Non-Toxic

Compound: CCCCC1=N/C(=C\c2ccc(Cl)cc2)C(=O)N1Cc1ccc(-c2ccccc2-c2nnn(C(c3ccccc3)(c3ccccc3)c3ccccc3)n2)cc1
- Activity (NCI-H358 [2]): Non-Toxic
- Activity (NIH3T3 [8]): Non-Toxic
- Activity (NIH3T3 [4]): Non-Toxic
- Activity (NCI-H358 [9]): Non-Toxic
- Activity (A549 [6]): Non-Toxic
- Activity (A549 [10]): Non-Toxic

- Activity (HUVEC [15]): Dose-dependent effect
- Activity (HUVEC [17]): 90%
- Activity (HUVEC [20]): Dose-dependent effect
- pKi [7]: 4.60
Compound: CCCCC1=N/C(=C\c2ccc(Br)cc2)C(=O)N1Cc1ccc(-c2ccccc2C#N)cc1
- Activity (MCF7 [11]): Active
- Activity (A549 [1]): Active
- Activity (HUVEC [12]): Toxic
- Activity (MCF7 [13]): Active
- Activity (MCF7 [14]): Active
- Activity (NCI-H358 [2]): Non-Toxic
- Activity (NCI-H358 [3]): Active
- Activity (HUVEC [16]): Toxic
- Activity (NIH3T3 [8]): Non-Toxic
- Activity (NIH3T3 [4]): Non-Toxic
- Activity (MCF7 [18]): Dose-dependent effect
- Activity (HUVEC [19]): Toxic
- Activity (NCI-H358 [9]): Non-Toxic
- Activity (MCF7 [21]): >70%
- Activity (NIH3T3 [5]): Toxic
- Activity (A549 [6]): Non-Toxic
- Activity (MCF7 [22]): Dose-dependent effect
- Activity (A549 [10]): Non-Toxic

Compound: CCCCC1=N/C(=C\c2ccc(Br)cc2)C(=O)N1Cc1ccc(-c2ccccc2-c2nnn(C(c3ccccc3)(c3ccccc3)c3ccccc3)n2)cc1
- Activity (NCI-H358 [2]): Non-Toxic
- Activity (NCI-H358 [3]): Active
- Activity (NIH3T3 [8]): Non-Toxic
- Activity (NIH3T3 [4]): Non-Toxic
- Activity (NCI-H358 [9]): Non-Toxic
- Activity (A549 [6]): Non-Toxic
- Activity (A549 [10]): Non-Toxic

Compound: CCCCC1=N/C(=C\c2cccc(Br)c2)C(=O)N1Cc1ccc(-c2ccccc2-c2nnn(C(c3ccccc3)(c3ccccc3)c3ccccc3)n2)cc1
- Activity (A549 [1]): Active
- Activity (NCI-H358 [2]): Non-Toxic
- Activity (NCI-H358 [3]): Active
- Activity (NIH3T3 [8]): Non-Toxic
- Activity (NIH3T3 [4]): Non-Toxic
- Activity (NCI-H358 [9]): Non-Toxic
- Activity (A549 [6]): Non-Toxic
- Activity (A549 [10]): Non-Toxic

- inhibition [23]: Dose-dependent effect
- pKi [7]: 6.50
Compound: CCCCC1=N/C(=C\c2ccccc2Br)C(=O)N1Cc1ccc(-c2ccccc2-c2nnn(C(c3ccccc3)(c3ccccc3)c3ccccc3)n2)cc1
- Activity (A549 [1]): Active
- Activity (NCI-H358 [2]): Non-Toxic
- Activity (NIH3T3 [8]): Non-Toxic
- Activity (NIH3T3 [4]): Non-Toxic
- Activity (NCI-H358 [9]): Non-Toxic
- Activity (NIH3T3 [5]): Toxic
- Activity (A549 [6]): Non-Toxic
- Activity (A549 [10]): Non-Toxic
